In patent publication US8529877B2, “Benzylidene compounds comprising phosphono-groups” (BASF SE, priority 2008, dated 2013):

Experiments:
Format in all cases: physicochemical
[1] = Photostability of Butyl Methoxydibenzoylmethane in O/W sunscreen film, solar simulator, HPLC; settings: for Residual Butyl Methoxydibenzoylmethane: solar simulator 2 hours (5400 kJ/m2)
Protocol: The photostability of Butyl Methoxydibenzoylmethane is determined by spreading the emulsion as a 20 μm thick film on a quartz plate. The film is irradiated using a solar simulator for 2 hours (5400 kJ/m2). After irradiation, the quartz plate is plunged into 5 ml of tetrahydrofurane. The amount of UV-A filter Butyl Methoxydibenzoylmethane is then determined using high performance liquid chromatography. The residual Butyl Methoxydibenzoylmethane is determined to be 42%.
The photostability of Butyl Methoxydibenzoylmethane in the comparative formulation B is determined as described above for formulation A. The residual Butyl Methoxydibenzoylmethane is determined to be 4%.

[2] = Photostability of Ethylhexyl Methoxycinnemate in O/W sunscreen film, solar simulator, HPLC; settings: for Residual Ethylhexyl Methoxycinnemate: solar simulator 4 hours (10800 kJ/m2)
Protocol: The photostability of the UV-B filter Ethylhexyl Methoxycinnemate is determined by spreading the emulsion as a 20 μm thick film on a quartz plate. The film is irradiated using a solar simulator for 4 hours (10800 kJ/m2). After irradiation, the quartz plate is plunged into 5 ml of tetrahydrofurane. The amount of UV-B filter Ethylhexyl Methoxycinnemate is then determined using high performance liquid chromatography. The residual Ethylhexyl Methoxycinnemate is determined to be 59%.
The photostability of Ethylhexyl Methoxycinnemate in the comparative formulation B is determined as described above for formulation A. The residual Ethylhexyl Methoxycinnemate is determined to be 38%.

[3] = UV shielding properties: UV spectra in ethanol (absorption maximum, A1%1cm); parameters: Absorption maximum λmax: unit not given here; settings: for Absorption maximum λmax / A^1%1 cm: UV spectra in ethanol; for A^1%1 cm: at the absorption maximum; for Absorption bands (coverage of UV range): UV spectrum in ethanol
From the text: The UV shielding properties of the bisbiphenyl triazine derivatives were investigated by measuring their UV spectra in ethanol. In the following table the investigated absorption maxima (λmax) together with the corresponding A^1%1cm values are listed.

[4] = Photostability of the UV filter in highly diluted ethanol solution under irradiation, analysed by UV spectroscopy; settings: for Half time: first order kinetic fit, half-life under COLIPA standard sun irradiation
Protocol: The method used for assessment of photostability is based on the irradiation of a highly diluted solution of the UV-filter. The analysis after certain doses of irradiation was performed by UV-spectroscopy. The concentration of the UV-absorber in ethanol is adjusted to values between 1·10^−5 and 1·10^−6 mol/l, such that the absorbance of the solution in cuvette of 1 cm optical pathlength is equal or smaller than 0.2. The mutual protection of filter molecules can be excluded under such conditions.
Prior to irradiation of a sample the UVB-intensity at the sample position is measured with a UV-radiometer (RM-12, Dr. Gröbel Electronic GmbH). This radiometer was calibrated by comparison with a measurement of the spectral output of the metal halide lamp (including light guide and cut-off filter) using a wavelength-resolved radiometer (Gamma C11). Therefore the relationship of the reading of the RM-12 radiometer and the corresponding spectral output of the lamp is known, and one is able to determine the wavelength-resolved intensities by measuring the UVB-intensity. By changing the distance between the end of the light guide and the cuvette, the UVB-intensity can be varied in the range of 100 μW/cm^2 and 4500 μW/cm^2.
For sample irradiation the highest possible intensity was used (4.5 mW/cm^2 UVB-intensity measured with the Macam 103 radiometer). The irradiation time was varied from 0 to 180 min. The dose the sample has received after 180 minutes corresponds to 60 MED. During irradiation the sample was stirred. After certain intervals of irradiation, the samples were analysed in a UV-spectrometer (Perkin Elmer, Lambda 16).
From the absorbance values at each dose of irradiation the concentration may be calculated using Lambert-Beer's law. In order to get the half-life of the substance, a first order kinetic model was fitted to the experimental data. Since the UV-spectrum of the lamp and the UV-spectrum of the COLIPA standard sun are known, one can calculate the respective half-life of the UV-absorber under conditions of COLIPA standard sun irradiation [Bernd Herzog, Stefan Müller, Myriam Sohn, Uli Osterwalder, “New Insight and Prediction of Photostablity of Sunscreens”, SÖFW Journal 133, 26-36 (2007)].
The investigated half-time values and recovery after irradiation (10 MED) of some specific benzotropolones are listed in the table below: […]

[5] = O/W Sunscreen Formulation A (with P-01), 20 μm film on quartz plate
[6] = comparative formulation B (without P-01), 20 μm film
[7] = formulation A versus comparative formulation B

In the case of `COc1ccc(C(=O)CC(=O)c2ccc(C(C)(C)C)cc2)cc1` [Butyl Methoxydibenzoylmethane, 1-[4-(1,1-dimethylethyl)phenyl]-3-(4-methoxyphenyl)propane-1,3-dione], the “Residual Butyl Methoxydibenzoylmethane” value [1, 5] is reported as 42% and the “Residual Butyl Methoxydibenzoylmethane” value [1, 6] is reported as 4%.
With `CCOC(=O)/C(=C\c1ccc(OC)cc1)P(=O)(OCC)OCC` [Compound P-1] the “Stabilization factor of Ethylhexyl Methoxycinnemate” value [2, 7] was 1.55, the “Absorption maximum λmax” value [3] was 303 and the “A^1%1 cm” value [3] was 519. The “Absorption bands (coverage of UV range)” value [3] was “broad absorption bands”, the “Stabilization factor of Butyl Methoxydibenzoylmethane” value [1, 7] was “at least 10” and the “Photodegradation after irradiation of 10 MED” value [4] was “no photodegradation”. The Half time [4] was 14 311 h.
For `CCOC(=O)/C(=C\c1ccc(/C=C(\C(=O)OCC)P(=O)(OCC)OCC)cc1)P(=O)(OCC)OCC` [Compound P-2], the “Absorption maximum λmax” value [3] was 302, the “A^1%1 cm” value [3] was 500 and the “Absorption bands (coverage of UV range)” value [3] was “broad absorption bands”. It also gave a Half time [4] of 172 h.
For `CCOC(=O)/C(=C\c1ccc(N(CC)CC)cc1)P(=O)(OCC)OCC` [Compound P-3], the “Absorption maximum λmax” value [3] was 366, the “A^1%1 cm” value [3] was 624 and the “Absorption bands (coverage of UV range)” value [3] was “broad absorption bands”. The Half time [4] was 320 h.
With `CCOC(=O)/C(=C\c1cc(OC)c(O)c(OC)c1)P(=O)(OCC)OCC` [Compound P-4] the “Absorption maximum λmax” value [3] was 322, the “A^1%1 cm” value [3] was 390 and the “Absorption bands (coverage of UV range)” value [3] was “broad absorption bands”. For the same molecule, the Half time [4] was 100 h.
In the case of `CCOP(=O)(OCC)C(=Cc1ccc(-c2ccccc2)cc1)P(=O)(OCC)OCC` [Compound P-5], the “Absorption maximum λmax” value [3] is reported as 299, the “A^1%1 cm” value [3] is reported as 427 and the “Absorption bands (coverage of UV range)” value [3] is reported as “broad absorption bands”. The Half time [4] was 7 h.
For `CCOP(=O)(OCC)C(=Cc1ccc(OC)cc1)P(=O)(OCC)OCC` [Compound P-6], the “Absorption maximum λmax” value [3] was 313, the “A^1%1 cm” value [3] was 575 and the “Absorption bands (coverage of UV range)” value [3] was “broad absorption bands”. It also gave a Half time [4] of 11285 h.
In the case of `CCOC(=O)/C(=C\c1ccc(-c2ccccc2)cc1)P(=O)(OCC)OCC` [Compound P-7], the “Absorption maximum λmax” value [3] is reported as 302, the “A^1%1 cm” value [3] is reported as 650 and the “Absorption bands (coverage of UV range)” value [3] is reported as “broad absorption bands”. For the same molecule, the “Photodegradation after irradiation of 10 MED” value [4] was “no photodegradation” and the Half time [4] was 466.6 h.
With `CCOC(=O)/C(=C\c1ccc(NC(C)=O)cc1)P(=O)(OCC)OCC` [Compound P-17] the “Absorption maximum λmax” value [3] was 308, the “A^1%1 cm” value [3] was 604 and the Half time [4] was 947.6 h.
For `CCOC(=O)/C(=C\c1ccc(-c2ccc(/C=C(\C(=O)OCC)P(=O)(OCC)OCC)cc2)cc1)P(=O)(OCC)OCC` [Compound P-19], the “Absorption maximum λmax” value [3] was 324, the “A^1%1 cm” value [3] was 733 and the Half time [4] was 220.6 h.
With `CCOC(=O)C(=C1c2ccccc2-c2ccccc21)P(=O)(OCC)OCC` [Compound P-20] the “Absorption maximum λmax” value [3] was 314, the “A^1%1 cm” value [3] was 371 and the Half time [4] was 449.2 h.
With `CCOC(=O)/C(=C\c1ccc(O)c(OC)c1)P(=O)(OCC)OCC` [Compound P-21] the “Absorption maximum λmax” value [3] was 319 and the “A^1%1 cm” value [3] was 429.
For `CCOC(=O)/C(=C\c1cc(OC)c(OC)c(OC)c1)P(=O)(OCC)OCC` [Compound P-22], the “Absorption maximum λmax” value [3] was 299, the “A^1%1 cm” value [3] was 357 and the Half time [4] was 262.8 h.
For `CCCCC(CC)COC(=O)C=Cc1ccc(OC)cc1` (centres unmarked) [Ethylhexyl Methoxycinnemate, 2-ethylhexyl 4-methoxycinnamate], the “Residual Ethylhexyl Methoxycinnemate” value [2, 5] was 59% and the “Residual Ethylhexyl Methoxycinnemate” value [2, 6] was 38%.
